From US20100029704A1, “SALT OF NONSTEROIDAL ANTI-INFLAMMATORY DRUG AND ORGANIC AMINE COMPOUND AND USE THEREOF” (priority 2007, published 2010)
Counter-ions that a name gives are not always drawn.

Legend:
[1] = Skin permeability test using isolated rat abdominal skin (Franz-type diffusion cell); conditions: accumulated up to 6 hours, 2.5 wt % as NSAID free acid in diethyl sebacate/propylene glycol, 32° C.
Description: An equimolar salt of NSAID and organic amine was dissolved in a mixture of diethyl sebacate and propylene glycol to give a solution preparation. For comparison, a solution preparation (control) of NSAID was prepared in the same manner.
As a receptor solution, saline-ethanol solution (9:1, 8 ml) was placed in an upright Franz-type diffusion cell (effective diffusion area: 1 cm^2), and the solution was stirred and maintained at 32° C. An isolated abdominal shaved skin of 6-week-old Wistar rat was applied to the Franz cell, and the prepared solution preparation (0.15 ml) was applied to the skin. A part (300 μL) of the receptor solution was taken at predetermined time intervals, the drug concentration in the receptor solution was measured by high performance liquid chromatography, and the drug permeation amount per 1 cm^2 rat skin was calculated.
Unless otherwise indicated, in the following Experimental Examples, the drug concentration of the solution preparation is 2.5 wt % as NSAID free acid, and the skin permeation amount is an accumulated amount (μg/cm^2) up to 6 hours.

[2] = Solubility of NSAID-eperisone salt and NSAID free acid in diethyl sebacate; format: physicochemical; conditions: for amount (g) of diethyl sebacate necessary for dissolving an eperisone salt corresponding to NSAID (1 g) / amount (g) of diethyl sebacate necessary for dissolving NSAID (1 g): room temperature; for dissolution in diethyl sebacate (50 g): 5 g NSAID free acid or ionic liquid corresponding to 5 g NSAID, shaken at room temperature for 30 min; for amount (g) of diethyl sebacate necessary for dissolving NSAID (1 g): NSAID free acid
Description: The solubility of an eperisone salt of NSAID, and a free acid of NSAID in diethyl sebacate widely used for external preparations was measured. […] The solutions were stood still and, when an undissolved matter was found, diethyl sebacate was further added, and the mixture was shaken.

[3] = room temperature; crystals were indomethacin:lidocain 2:1; cited from earlier work
[4] = Form of the salt on standing / long-term preservation; format: physicochemical
Description: First, a salt was produced using equimolar amounts of a carboxylic acid NSAID and organic amine. […] The obtained ionic liquid or crystals and the like were left standing, confirmed to be stable, and then the forms thereof were observed. This has clarified that the salt produced by the combination of NSAID and an organic amine compound may be a liquid (viscous liquid) or crystal at ambient temperature (25° C.).

For `CC(C(=O)O)c1ccc(CC2CCCC2=O)cc1.CCc1ccc(C(=O)C(C)CN2CCCCC2)cc1` (stereo not shown) [loxoprofen-eperisone salt], the loxoprofen permeation amount [1] was 91.2 μg/cm^2 and the “amount (g) of diethyl sebacate necessary for dissolving an eperisone salt corresponding to NSAID (1 g)” value (from here on “amount (g) … to NSAID (1 g)”) [2] was “not more than 10 g”.
In the case of `CCN(CC)CC(=O)Nc1c(C)cccc1C.COc1ccc2c(c1)c(CC(=O)O)c(C)n2C(=O)c1ccc(Cl)cc1`, the “stability of the ionic liquid when stood still” value [3] is listed as “crystals were gradually precipitated”.
For `CCN(CC)CC(=O)Nc1c(C)cccc1C.O=C(O)Cc1ccccc1Nc1c(Cl)cccc1Cl` [diclofenac-lidocain salt], the “form/note: crystallization during long-term preservation” value [4] was “partial”.
Molecule `CC(O)CN(CC(C)O)CC(C)O.COc1ccc2c(c1)c(CC(=O)O)c(C)n2C(=O)c1ccc(Cl)cc1` [indomethacin-TIPA salt] has an indomethacin permeation amount [1] of 15.8 μg/cm^2.
With `CCc1ccc(C(=O)C(C)CN2CCCCC2)cc1.COc1ccc2c(c1)c(CC(=O)O)c(C)n2C(=O)c1ccc(Cl)cc1` [indomethacin-eperisone salt] the “amount (g) … to NSAID (1 g)” value [2] was “not more than 10 g”.
With `O=C(O)Cc1ccccc1Nc1c(Cl)cccc1Cl` [diclofenac] the diclofenac permeation amount [1] was 8.8 μg/cm^2, the “dissolution in diethyl sebacate (50 g)” value [2] was “not dissolved” and the “amount (g) of diethyl sebacate necessary for dissolving NSAID (1 g)” value (from here on “amount (g) … for dissolving NSAID (1 g)”) [2] was “not less than 100 g”.
Work on `COc1ccc2c(c1)c(CC(=O)O)c(C)n2C(=O)c1ccc(Cl)cc1.Cc1ccc(C(=O)C(C)CN2CCCCC2)cc1` [indomethacin-tolperisone salt] yielded an indomethacin permeation amount [1] of 14.7 μg/cm^2.
With `CCc1cccc2c3c([nH]c12)C(CC)(CC(=O)O)OCC3.Cc1ccc(C(=O)C(C)CN2CCCCC2)cc1` (stereo not shown) [etodolac-tolperisone salt] the etodolac permeation amount [1] was 22.3 μg/cm^2.
For `CC(C(=O)O)c1ccc(-c2ccccc2)c(F)c1.CC(O)CN(CC(C)O)CC(C)O` (stereo not shown) [flurbiprofen-TIPA salt], the flurbiprofen permeation amount [1] was 91.8 μg/cm^2.
Work on `Cc1ccc(C(=O)C(C)CN2CCCCC2)cc1.O=C(O)Cc1ccccc1Nc1c(Cl)cccc1Cl` [diclofenac-tolperisone salt] yielded a diclofenac permeation amount [1] of 20.3 μg/cm^2.
With `CC(C(=O)O)c1ccc(-c2ccccc2)c(F)c1.CCN(CC)CC(=O)Nc1c(C)cccc1C` (stereo not shown) [flurbiprofen-lidocain salt] the flurbiprofen permeation amount [1] was 91.0 μg/cm^2.
In the case of `CC(C(=O)O)c1ccc(-c2ccccc2)c(F)c1.Cc1ccc(C(=O)C(C)CN2CCCCC2)cc1` (stereo not shown) [flurbiprofen-tolperisone salt], the flurbiprofen permeation amount [1] was 46.3 μg/cm^2.
With `CC(C(=O)O)c1ccc(-c2ccccc2)c(F)c1` (stereo not shown) [flurbiprofen, reference compound] the flurbiprofen permeation amount [1] was 20.2 μg/cm^2 and the “amount (g) … for dissolving NSAID (1 g)” value [2] was “not more than 10 g”.
In the case of `CCc1cccc2c3c([nH]c12)C(CC)(CC(=O)O)OCC3` (stereo not shown) [etodolac, reference compound], the etodolac permeation amount [1] was 10.4 μg/cm^2 and the “amount (g) … for dissolving NSAID (1 g)” value [2] was “not more than 10 g”.
With `CC(C(=O)O)c1ccc(-c2ccccc2)c(F)c1.COc1cccc(C2(O)CCCCC2CN(C)C)c1` (stereo not shown) [flurbiprofen-tramadol salt] the flurbiprofen permeation amount [1] was 78.1 μg/cm^2.
In the case of loxoprofen-DIPA salt, the loxoprofen permeation amount [1] was 68.6 μg/cm^2.
With `CC(C(=O)O)c1ccc(CC2CCCC2=O)cc1.CCN(CC)CC(=O)Nc1c(C)cccc1C` (stereo not shown) [loxoprofen-lidocain salt] the loxoprofen permeation amount [1] was 103.4 μg/cm^2.
For `COc1cccc(C2(O)CCCCC2CN(C)C)c1.O=C(O)Cc1ccccc1Nc1c(Cl)cccc1Cl` (stereo not shown) [diclofenac-tramadol salt], the “form/note: crystallization during long-term preservation” value [4] was “crystallized”.
`COc1ccc2c(c1)c(CC(=O)O)c(C)n2C(=O)c1ccc(Cl)cc1.COc1cccc(C2(O)CCCCC2CN(C)C)c1` [indomethacin-tramadol salt] showed an indomethacin permeation amount [1] of 9.8 μg/cm^2.
In the case of `CC(C(=O)O)c1ccc(-c2ccccc2)c(F)c1.CCc1ccc(C(=O)C(C)CN2CCCCC2)cc1` (stereo not shown) [flurbiprofen-eperisone salt], the “amount (g) … to NSAID (1 g)” value [2] was “not more than 10 g”.
`CC(C(=O)O)c1cccc(C(=O)c2ccccc2)c1` (stereo not shown) [ketoprofen, reference compound] gave a Ketoprofen permeation amount [1] of 36.1 μg/cm^2.
With `CC(C(=O)O)c1ccc(CC2CCCC2=O)cc1.CCCCN1CCCCC1C(=O)Nc1c(C)cccc1C` (stereo not shown) [loxoprofen-bupivacaine salt] the “form/note: crystallization during long-term preservation” value [4] was “partially”.
In the case of `CCc1ccc(C(=O)C(C)CN2CCCCC2)cc1.CCc1cccc2c3c([nH]c12)C(CC)(CC(=O)O)OCC3` (stereo not shown) [etodolac-eperisone salt], the etodolac permeation amount [1] was 20.5 μg/cm^2 and the “amount (g) … to NSAID (1 g)” value [2] was “not more than 10 g”.
In the case of `CC(C(=O)O)c1ccc(CC2CCCC2=O)cc1` (stereo not shown) [loxoprofen], the loxoprofen permeation amount ([1]; listed as loxoprofen free acid) was 49.5 μg/cm^2, the “dissolution in diethyl sebacate (50 g)” value [2] was “not dissolved” and the “amount (g) … for dissolving NSAID (1 g)” value [2] was “not less than 100 g”.
`CC(C(=O)O)c1ccc(CC2CCCC2=O)cc1` (stereo not shown) [loxoprofen sodium salt, reference compound] gave a loxoprofen permeation amount ([1]; sodium salt) of 27.1 μg/cm^2.
With `COc1ccc2c(c1)c(CC(=O)O)c(C)n2C(=O)c1ccc(Cl)cc1` [indomethacin] the indomethacin permeation amount [1] was 6.9 μg/cm^2, the “dissolution in diethyl sebacate (50 g)” value [2] was “not dissolved” and the “amount (g) … for dissolving NSAID (1 g)” value [2] was “not less than 100 g”.
Molecule `CC(C(=O)O)c1ccc(CC2CCCC2=O)cc1.Cc1ccc(C(=O)C(C)CN2CCCCC2)cc1` (stereo not shown) [loxoprofen-tolperisone salt] has a loxoprofen permeation amount [1] of 82.3 μg/cm^2.
